Assay results: ChEMBL document CHEMBL1909046, “DrugMatrix in vitro pharmacology data”
pIC50, pKi: −log10 of the molar value.

Assays:
Calcitonin receptor = target: T1, Calcitonin receptor (Homo sapiens, UniProt P30988); format: cell membranes, Membrane; details: t47d; further: in other assays of this panel Not Active means under 50% inhibition at 10 µM
T1 sequence (P30988 whole entry): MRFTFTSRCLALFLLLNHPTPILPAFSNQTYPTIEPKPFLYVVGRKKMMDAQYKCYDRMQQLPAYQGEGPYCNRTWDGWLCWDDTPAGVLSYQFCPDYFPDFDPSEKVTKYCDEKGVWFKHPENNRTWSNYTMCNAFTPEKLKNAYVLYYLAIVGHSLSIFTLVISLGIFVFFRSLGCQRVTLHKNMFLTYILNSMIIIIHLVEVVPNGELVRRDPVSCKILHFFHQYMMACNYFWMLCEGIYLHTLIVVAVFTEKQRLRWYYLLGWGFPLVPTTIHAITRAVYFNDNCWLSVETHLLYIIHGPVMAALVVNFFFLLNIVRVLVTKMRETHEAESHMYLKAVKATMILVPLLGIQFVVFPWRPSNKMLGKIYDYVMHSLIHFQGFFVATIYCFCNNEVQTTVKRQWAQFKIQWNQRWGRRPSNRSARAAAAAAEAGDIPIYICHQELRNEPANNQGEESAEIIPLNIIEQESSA

[1] = DRUGMATRIX: GABAA, Flunitrazepam, Central radioligand binding (ligand: [3H] Flunitrazepam); format: cell membranes, Rattus norvegicus, Wistar, Brain, Membrane; details: Not Active = under 50% inhibition at 10 µM
[2] = target: T2, C-X-C chemokine receptor type 1 (Homo sapiens, UniProt P25024); further: in other assays of this panel Not Active means under 50% inhibition at 10 µM
T2 sequence (P25024 whole entry): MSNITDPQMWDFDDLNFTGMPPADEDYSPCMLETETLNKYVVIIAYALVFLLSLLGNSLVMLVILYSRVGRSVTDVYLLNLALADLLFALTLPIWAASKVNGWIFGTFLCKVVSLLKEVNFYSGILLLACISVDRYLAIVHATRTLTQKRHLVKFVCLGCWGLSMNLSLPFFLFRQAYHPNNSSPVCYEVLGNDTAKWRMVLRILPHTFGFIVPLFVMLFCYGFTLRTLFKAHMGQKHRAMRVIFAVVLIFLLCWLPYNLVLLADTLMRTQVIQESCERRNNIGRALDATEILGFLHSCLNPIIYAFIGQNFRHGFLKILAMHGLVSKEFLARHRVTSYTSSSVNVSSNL

Adenosine receptor A1 = target: T3, Adenosine receptor A1 (Homo sapiens, UniProt P30542); format: cell membranes, Membrane; details: cho;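 further: radioligand binding assay at the adenosine A1 receptor, with DPCPX serving as the labelled ligand; in other assays of this panel Not Active means under 50% inhibition at 10 µM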
T3 sequence (P30542 whole entry): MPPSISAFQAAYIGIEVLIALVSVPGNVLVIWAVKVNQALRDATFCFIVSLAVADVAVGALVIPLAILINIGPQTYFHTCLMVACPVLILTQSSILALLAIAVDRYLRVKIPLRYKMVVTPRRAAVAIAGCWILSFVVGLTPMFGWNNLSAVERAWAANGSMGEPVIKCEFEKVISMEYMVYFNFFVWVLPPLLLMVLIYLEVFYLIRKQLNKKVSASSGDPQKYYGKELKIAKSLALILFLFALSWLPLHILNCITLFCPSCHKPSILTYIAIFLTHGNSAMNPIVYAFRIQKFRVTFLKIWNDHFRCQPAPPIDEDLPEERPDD

[3] = target: Beta-2 adrenergic receptor (Homo sapiens, UniProt P07550); assay: DRUGMATRIX: Adrenergic beta2 radioligand binding (ligand: [3H] CGP-12177); format: cell membranes, Membrane; details: cho; Not Active = under 50% inhibition at 10 µM
Beta-2 adrenergic receptor, sequence (P07550 whole entry): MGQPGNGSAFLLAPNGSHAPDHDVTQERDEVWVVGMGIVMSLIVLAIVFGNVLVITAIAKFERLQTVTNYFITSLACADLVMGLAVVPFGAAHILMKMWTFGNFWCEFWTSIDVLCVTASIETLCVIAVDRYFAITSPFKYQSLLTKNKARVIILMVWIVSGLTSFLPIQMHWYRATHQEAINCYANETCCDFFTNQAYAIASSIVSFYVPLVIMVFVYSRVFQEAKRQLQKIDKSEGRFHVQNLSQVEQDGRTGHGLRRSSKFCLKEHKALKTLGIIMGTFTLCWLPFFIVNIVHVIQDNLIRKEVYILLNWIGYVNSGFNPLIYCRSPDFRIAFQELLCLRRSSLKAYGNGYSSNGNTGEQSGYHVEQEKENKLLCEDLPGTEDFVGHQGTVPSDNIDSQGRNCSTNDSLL

[4] = target: Vascular endothelial growth factor receptor 1 (Homo sapiens, UniProt P17948); format: cell-based; details: huvec; further: in other assays of this panel Not Active means under 50% inhibition at 10 µM
Vascular endothelial growth factor receptor 1, sequence (P17948 whole entry): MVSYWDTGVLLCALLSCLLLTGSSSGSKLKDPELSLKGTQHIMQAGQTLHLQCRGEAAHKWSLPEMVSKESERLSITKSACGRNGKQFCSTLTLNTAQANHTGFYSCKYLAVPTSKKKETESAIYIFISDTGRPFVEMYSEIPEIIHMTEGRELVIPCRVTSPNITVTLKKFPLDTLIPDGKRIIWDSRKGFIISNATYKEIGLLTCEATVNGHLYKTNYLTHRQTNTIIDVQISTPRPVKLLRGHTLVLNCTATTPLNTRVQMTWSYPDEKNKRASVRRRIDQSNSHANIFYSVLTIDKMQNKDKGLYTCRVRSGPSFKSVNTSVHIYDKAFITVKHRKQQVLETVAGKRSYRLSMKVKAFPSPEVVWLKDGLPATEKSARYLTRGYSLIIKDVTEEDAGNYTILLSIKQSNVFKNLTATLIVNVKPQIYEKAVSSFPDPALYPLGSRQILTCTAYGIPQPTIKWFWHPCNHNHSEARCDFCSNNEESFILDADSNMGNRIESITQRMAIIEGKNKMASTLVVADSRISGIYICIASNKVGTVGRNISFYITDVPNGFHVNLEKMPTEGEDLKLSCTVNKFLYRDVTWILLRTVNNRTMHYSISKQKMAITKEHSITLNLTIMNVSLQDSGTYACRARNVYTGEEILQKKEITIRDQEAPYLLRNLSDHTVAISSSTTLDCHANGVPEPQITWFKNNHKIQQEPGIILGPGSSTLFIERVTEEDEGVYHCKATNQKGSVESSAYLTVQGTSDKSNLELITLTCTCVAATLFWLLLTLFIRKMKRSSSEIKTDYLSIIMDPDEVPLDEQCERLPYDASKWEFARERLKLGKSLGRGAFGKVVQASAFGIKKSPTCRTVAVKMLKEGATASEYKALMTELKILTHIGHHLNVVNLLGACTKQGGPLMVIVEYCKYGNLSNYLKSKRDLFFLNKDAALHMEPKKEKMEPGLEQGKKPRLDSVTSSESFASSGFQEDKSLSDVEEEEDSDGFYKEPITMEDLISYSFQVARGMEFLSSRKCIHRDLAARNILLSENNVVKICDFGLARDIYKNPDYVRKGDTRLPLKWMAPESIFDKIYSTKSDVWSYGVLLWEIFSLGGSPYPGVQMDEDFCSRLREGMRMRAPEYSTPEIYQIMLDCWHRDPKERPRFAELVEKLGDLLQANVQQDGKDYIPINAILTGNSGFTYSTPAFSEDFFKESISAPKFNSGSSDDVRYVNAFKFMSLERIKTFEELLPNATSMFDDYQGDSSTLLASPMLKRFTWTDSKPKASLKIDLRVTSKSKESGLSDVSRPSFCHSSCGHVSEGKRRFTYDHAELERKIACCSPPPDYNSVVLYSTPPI

[5] = DRUGMATRIX: Glutamate, NMDA, Phencyclidine radioligand binding (ligand: [3H] TCP); format: cell membranes, Rattus norvegicus, Wistar, Cerebral cortex, Membrane; details: Not Active = under 50% inhibition at 10 µM
[6] = DRUGMATRIX: Calcium Channel Type L, Benzothiazepine radioligand binding (ligand: [3H] Diltiazem); format: cell membranes, Rattus norvegicus, Wistar, Brain, Membrane; details: Not Active = under 50% inhibition at 10 µM

| Compound | IC50 (Calcitonin receptor) | IC50 [1] | Ki [1] | IC50 [2] | IC50 (Adenosine receptor A1) | IC50 [3] | IC50 [4] | IC50 [5] | Ki [5] | IC50 [6] | Ki [6] | pIC50 ([6]; read-out: IC50) | pKi ([6]; read-out: Ki) |
| --- | --- | --- | --- | --- | --- | --- | --- | --- | --- | --- | --- | --- | --- |
| C#C[C@]1(OC(C)=O)CC[C@H]2[C@@H]3CCC4=CC(=O)CC[C@@H]4[C@H]3CC[C@@]21C [NORETHINDRONE ACETATE] | Not Active | Not Active | Not Active | Not Active | Not Active | Not Active | Not Active | Not Active | Not Active | Not Active | Not Active |  |  |
| COC(=O)C1=C(C)NC(C)=C(C(=O)OCC(C)C)C1c1ccccc1[N+](=O)[O-] (stereo unspecified) [NISOLDIPINE] | Not Active | Not Active | Not Active | Not Active | Not Active | Not Active | Not Active | Not Active | Not Active |  |  | 8.60 | 8.66 |
| CC(=O)Nc1c(I)c(NC(C)=O)c(I)c(C(=O)O)c1I [DIATRIZOIC ACID] | Not Active | Not Active | Not Active | Not Active | Not Active | Not Active | Not Active | Not Active | Not Active | Not Active | Not Active |  |  |
| C[C@@H]1C[C@@H]([C@H](O)CC2CC(=O)NC(=O)C2)C(=O)[C@@H](C)C1 [CYCLOHEXIMIDE] | Not Active | Not Active | Not Active | Not Active | Not Active | Not Active | Not Active | Not Active | Not Active | Not Active | Not Active |  |  |
| Cc1cc(=O)n(-c2ccccc2)n1C [ANTIPYRINE] | Not Active | Not Active | Not Active | Not Active | Not Active | Not Active | Not Active | Not Active | Not Active | Not Active | Not Active |  |  |
| CC1(C)O[C@@H]2C[C@H]3[C@@H]4C[C@H](F)C5=CC(=O)CC[C@]5(C)[C@H]4[C@@H](O)C[C@]3(C)[C@]2(C(=O)CO)O1 [FLURANDRENOLIDE] | Not Active | Not Active | Not Active | Not Active | Not Active | Not Active | Not Active | Not Active | Not Active | Not Active | Not Active |  |  |
| CC(=O)OCC(=O)[C@@]1(O)CC[C@H]2[C@@H]3CCC4=CC(=O)CC[C@]4(C)[C@H]3C(=O)C[C@@]21C [CORTISONE ACETATE] | Not Active | Not Active | Not Active | Not Active | Not Active | Not Active | Not Active | Not Active | Not Active | Not Active | Not Active |  |  |
| CCN1CC(CCN2CCOCC2)C(c2ccccc2)(c2ccccc2)C1=O (stereo unspecified) [DOXAPRAM] | Not Active | Not Active | Not Active | Not Active | Not Active | Not Active | Not Active | Not Active | Not Active | Not Active | Not Active |  |  |
| NC(=O)c1cnccn1 [PYRAZINAMIDE] | Not Active | Not Active | Not Active | Not Active | Not Active | Not Active | Not Active | Not Active | Not Active | Not Active | Not Active |  |  |
| O=C1CC[C@H](N2C(=O)c3ccccc3C2=O)C(=O)N1 | Not Active | Not Active | Not Active | Not Active | Not Active | Not Active | Not Active | Not Active | Not Active | Not Active | Not Active |  |  |
| ClC(Cl)Cl [CHLOROFORM] | Not Active | Not Active | Not Active | Not Active | Not Active | Not Active | Not Active | Not Active | Not Active | Not Active | Not Active |  |  |
